Data: ChEMBL document CHEMBL4814066, “Amphiphilic peptide-based MMP3 inhibitors for intra-articular treatment of knee OA” (Bioorg Med Chem, 2021)
Calls of active or inactive are those of the source. The calls are words filed in the database; no cut-off is given here. Residues, ends and D or L forms follow the SMILES beside them.

What was measured:
[1] = Solubility in water at 1 mg/ml; format: physicochemical; details: buffer
[2] = target: Stromelysin-1 (Homo sapiens, UniProt P08254); assay: Inhibition of human MMP3 catalytic subunit by fluorometric analysis
Stromelysin-1, sequence (P08254 whole entry): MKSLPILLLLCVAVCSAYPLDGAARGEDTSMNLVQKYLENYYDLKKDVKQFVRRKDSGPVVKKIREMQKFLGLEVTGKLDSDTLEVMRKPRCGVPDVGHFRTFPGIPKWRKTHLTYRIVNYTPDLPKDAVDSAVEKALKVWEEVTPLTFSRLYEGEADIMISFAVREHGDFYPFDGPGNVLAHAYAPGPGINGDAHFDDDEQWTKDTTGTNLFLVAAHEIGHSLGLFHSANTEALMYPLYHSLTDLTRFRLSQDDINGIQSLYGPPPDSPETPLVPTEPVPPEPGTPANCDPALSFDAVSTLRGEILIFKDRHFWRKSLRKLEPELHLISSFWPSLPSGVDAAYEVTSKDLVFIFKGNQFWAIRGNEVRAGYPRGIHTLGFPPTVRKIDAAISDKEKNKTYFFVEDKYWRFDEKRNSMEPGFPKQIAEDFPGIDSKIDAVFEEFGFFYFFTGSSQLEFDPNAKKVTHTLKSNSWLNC

[3] = Cytotoxicity against mouse BALB/3T3 cells clone A31 incubated for 24 hrs by Alamar blue assay; format: cell-based; details: BALB/3T3 clone A31, 24 h
[4] = system: Cartilage tissue; assay: Antiinflammatory activity against bovine normal hyaline femoral condyles cartilage assessed as reduction in IL-1beta/OSM-induced collagen release at 6 to 127 uM incubated for 21 days with media replenishment for every 7 days relative to control; format: functional, tissue-based; details: Bos taurus, dose 6-127 µM, time 21.0 day
[5] = system: Cartilage tissue; assay: Antiinflammatory activity against bovine normal hyaline femoral condyles cartilage assessed as reduction in IL-1beta/OSM-induced collagen release at 93 uM incubated for 21 days with media replenishment for every 7 days relative to control; format: functional, tissue-based; details: Bos taurus, time 21.0 day

solubility [1]	IC50 [2] [µM]	Compound	IC50 [3] [µM]	Activity [4]	Activity [5]
Insoluble	> 50	CCCCCCCCC/C=C/CCCCCCCC(=O)N[C@@H](CS)C(=O)NCC(=O)N[C@@H](CCCNC(=N)N)C(=O)O			
Soluble	95.3	CC(=O)N[C@@H](CCCNC(=N)N)C(=O)N[C@@H](CS)C(=O)NCC(N)=O (Ac-Arg-Cys-Gly-NH2)			
Soluble	> 50	CC(=O)N[C@@H](CS)C(=O)NCC(=O)N[C@@H](CCCNC(=N)N)C(=O)N[C@@H](CCCCN)C(=O)O (Ac-CGRK-OH)			
Insoluble	850	CC(=O)N[C@@H](CS)C(=O)NCC(=O)N[C@@H](CCCNC(=N)N)C(=O)O (Ac-Cys-Gly-Arg-OH)			
Soluble	10.2	CC(=O)N[C@@H](CCCNC(=N)N)C(=O)N[C@@H](CS)C(=O)NCC(=O)N[C@H](C(N)=O)C(C)C (Ac-RCGV-NH2)	253	Active	
Soluble	173	CC(C)[C@H](NC(=O)CNC(=O)[C@H](CS)NC(=O)[C@@H](N)CCCNC(=N)N)C(N)=O (H-RCGV-NH2)			
Insoluble	> 200	CCCCCCCCNC(=O)C[C@H](NC(=O)CNC(=O)[C@H](CS)NC(=O)[C@@H](N)CCCNC(=N)N)C(N)=O (HELM PEPTIDE1{R.C.G.D.[am]}|CHEM1{[CCCCCCCCN[*:1]]}$PEPTIDE1,CHEM1,4:R3-1:R1$$$V2.0)			
Insoluble	4.4	CCCCCCCC(=O)N[C@@H](CS)C(=O)NCC(=O)N[C@@H](CCCNC(=N)N)C(=O)O (HELM PEPTIDE1{[CCCCCCCC(=O)[*:2]].C.G.R}$$$$V2.0)			
Soluble	3.2	CCCCCCCCCCCC(=O)N[C@@H](CS)C(=O)NCC(=O)N[C@@H](CCCNC(=N)N)C(=O)N[C@@H](CCCCN)C(=O)O (HELM PEPTIDE1{[CCCCCCCCCCCC(=O)[*:2]].C.G.R.K}$$$$V2.0)	186		Active
Insoluble	7	CCCCCCCCCCCC(=O)N[C@@H](CS)C(=O)NCC(=O)N[C@@H](CCCNC(=N)N)C(=O)O (HELM PEPTIDE1{[CCCCCCCCCCCC(=O)[*:2]].C.G.R}$$$$V2.0)			
Soluble	61.4	CCCCCCCCNC(=O)C[C@H](NC(=O)CNC(=O)[C@H](CS)NC(=O)[C@H](CCCNC(=N)N)NC(C)=O)C(N)=O (HELM PEPTIDE1{[ac].R.C.G.D.[am]}|CHEM1{[CCCCCCCCN[*:1]]}$PEPTIDE1,CHEM1,5:R3-1:R1$$$V2.0)			
Soluble	79.5	CCCC[C@H](NC(=O)CNC(=O)[C@H](CS)NC(=O)[C@H](CCCNC(=N)N)NC(C)=O)C(N)=O (HELM PEPTIDE1{[ac].R.C.G.[Nle].[am]}$$$$V2.0)			
